Values of other authors in patent US12594236B2, “Method of treating acute exacerbation of schizophrenia with long-acting injectable depot composition” (LABORATORIOS FARMACEUTICOS ROVI, S.A., priority 2021, dated 2026).
Read-outs that look alike come from different tables or passages of the source.

Tested on: acute schizophrenia

Row | SMILES | placebo-adjusted reduction of the PANSS total score (441 mg, 12 weeks, oral aripiprazole 3 weeks after randomization) | placebo-adjusted reduction of the PANSS total score (882 mg, 12 weeks, oral aripiprazole 3 weeks after randomization) | placebo-adjusted reduction of the PANSS total score (25 mg eq, 13 weeks) | placebo-adjusted reduction of the PANSS total score (100 mg eq, 13 weeks) | placebo-adjusted reduction of the PANSS total score (150 mg eq, 13 weeks)
1 | CCCCCCCCCCCC(=O)OCN1C(=O)CCc2ccc(OCCCCN3CCN(c4cccc(Cl)c4Cl)CC3)cc21 [Aripiprazole Lauroxil] | −10.9 | −11.9 | – | – | –
2 | CCCCCCCCCCCCCCCC(=O)OC1CCCn2c1nc(C)c(CCN1CCC(c3noc4cc(F)ccc34)CC1)c2=O (centres unmarked) [Paliperidone Palmitate] | – | – | −5.1 | −8.7 | −9.8
